Reference: ChEMBL document CHEMBL1147537, “N-Benzoyl amino acids as ICAM/LFA-1 inhibitors. Part 2: structure-activity relationship of the benzoyl moiety” (Bioorg Med Chem Lett, 2004)
Non-standard residues stand in square brackets, D forms with d. Residues, ends and D or L forms follow the SMILES beside them. ξ: configuration not given here. ξPip = O=C(O)C1CCCCN1

Each molecule was assayed against Intercellular adhesion molecule (ICAM-1), Integrin alpha-L/beta-2 (Homo sapiens, UniProt P05107+P05362+P20701) (assay: Inhibitory activity against association of LFA-1 with intercellular adhesion molecule 1).
Intercellular adhesion molecule (ICAM-1), Integrin alpha-L/beta-2, sequence (P20701 whole entry): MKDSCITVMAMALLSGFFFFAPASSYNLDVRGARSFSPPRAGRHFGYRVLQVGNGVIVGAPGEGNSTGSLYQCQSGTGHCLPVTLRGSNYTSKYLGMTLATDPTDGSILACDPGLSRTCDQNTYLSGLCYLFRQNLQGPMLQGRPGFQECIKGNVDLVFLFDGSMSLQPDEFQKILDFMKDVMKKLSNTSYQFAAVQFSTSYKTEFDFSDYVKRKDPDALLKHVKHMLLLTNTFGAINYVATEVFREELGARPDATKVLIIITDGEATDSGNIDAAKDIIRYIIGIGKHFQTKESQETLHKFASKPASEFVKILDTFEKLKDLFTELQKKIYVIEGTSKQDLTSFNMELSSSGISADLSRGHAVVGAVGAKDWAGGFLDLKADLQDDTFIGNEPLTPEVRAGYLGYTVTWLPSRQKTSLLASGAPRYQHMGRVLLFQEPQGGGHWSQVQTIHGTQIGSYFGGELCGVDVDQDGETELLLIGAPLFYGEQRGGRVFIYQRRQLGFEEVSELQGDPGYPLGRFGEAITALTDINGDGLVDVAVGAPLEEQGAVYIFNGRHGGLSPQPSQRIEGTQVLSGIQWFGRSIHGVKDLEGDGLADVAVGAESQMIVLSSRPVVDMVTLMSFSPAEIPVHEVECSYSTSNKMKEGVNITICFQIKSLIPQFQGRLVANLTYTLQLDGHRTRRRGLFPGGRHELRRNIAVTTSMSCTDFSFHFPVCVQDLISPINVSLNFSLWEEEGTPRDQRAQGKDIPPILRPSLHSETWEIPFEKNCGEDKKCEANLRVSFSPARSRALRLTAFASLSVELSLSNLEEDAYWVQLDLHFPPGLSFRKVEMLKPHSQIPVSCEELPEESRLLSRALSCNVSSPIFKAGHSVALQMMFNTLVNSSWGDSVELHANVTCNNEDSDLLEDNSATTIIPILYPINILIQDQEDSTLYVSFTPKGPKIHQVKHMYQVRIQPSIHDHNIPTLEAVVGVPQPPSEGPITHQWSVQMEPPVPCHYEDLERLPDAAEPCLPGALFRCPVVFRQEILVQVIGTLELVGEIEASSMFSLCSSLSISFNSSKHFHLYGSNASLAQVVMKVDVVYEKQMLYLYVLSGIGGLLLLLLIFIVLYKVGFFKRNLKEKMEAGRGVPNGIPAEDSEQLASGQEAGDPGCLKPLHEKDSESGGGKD
Intercellular adhesion molecule (ICAM-1), Integrin alpha-L/beta-2, sequence (P05362 whole entry): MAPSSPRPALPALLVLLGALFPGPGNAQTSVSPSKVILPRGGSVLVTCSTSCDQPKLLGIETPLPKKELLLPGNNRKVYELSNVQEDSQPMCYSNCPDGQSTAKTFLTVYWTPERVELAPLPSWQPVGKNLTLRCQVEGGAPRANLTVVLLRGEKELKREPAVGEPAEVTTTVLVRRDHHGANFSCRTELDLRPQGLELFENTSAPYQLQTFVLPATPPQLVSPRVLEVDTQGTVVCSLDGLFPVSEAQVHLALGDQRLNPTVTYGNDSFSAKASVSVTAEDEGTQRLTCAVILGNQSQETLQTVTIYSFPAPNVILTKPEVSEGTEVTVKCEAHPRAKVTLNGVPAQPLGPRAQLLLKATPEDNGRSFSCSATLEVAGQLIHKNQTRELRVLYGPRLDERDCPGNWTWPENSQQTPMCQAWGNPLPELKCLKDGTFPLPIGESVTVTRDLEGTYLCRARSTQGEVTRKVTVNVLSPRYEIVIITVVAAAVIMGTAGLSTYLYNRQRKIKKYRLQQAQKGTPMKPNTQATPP
Intercellular adhesion molecule (ICAM-1), Integrin alpha-L/beta-2, sequence (P05107 whole entry): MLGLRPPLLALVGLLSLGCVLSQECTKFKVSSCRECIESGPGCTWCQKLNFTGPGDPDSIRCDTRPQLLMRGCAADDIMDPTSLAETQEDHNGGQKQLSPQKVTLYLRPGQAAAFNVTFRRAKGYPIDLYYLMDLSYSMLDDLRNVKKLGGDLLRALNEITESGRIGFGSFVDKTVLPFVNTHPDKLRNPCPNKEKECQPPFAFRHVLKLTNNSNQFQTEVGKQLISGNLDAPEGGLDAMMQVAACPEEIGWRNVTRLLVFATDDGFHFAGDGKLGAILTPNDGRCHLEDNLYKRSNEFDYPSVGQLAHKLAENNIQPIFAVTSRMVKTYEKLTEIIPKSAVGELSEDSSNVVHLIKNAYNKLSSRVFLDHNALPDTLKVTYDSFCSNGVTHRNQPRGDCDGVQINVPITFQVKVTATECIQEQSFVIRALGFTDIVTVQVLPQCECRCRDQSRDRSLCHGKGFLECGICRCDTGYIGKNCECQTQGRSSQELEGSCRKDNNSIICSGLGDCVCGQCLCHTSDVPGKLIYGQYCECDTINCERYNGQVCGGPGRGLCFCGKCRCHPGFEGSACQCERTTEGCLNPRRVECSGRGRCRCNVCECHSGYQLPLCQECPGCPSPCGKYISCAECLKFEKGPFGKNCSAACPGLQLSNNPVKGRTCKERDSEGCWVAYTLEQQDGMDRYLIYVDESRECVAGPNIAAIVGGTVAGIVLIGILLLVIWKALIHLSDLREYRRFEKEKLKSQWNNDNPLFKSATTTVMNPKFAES
Format: protein-complex assay

SMILES | IC50
O=C(N[C@@H](Cc1c[nH]c2ccccc12)C(=O)O)c1ccccc1 | 127 µM
O=C(N[C@@H](Cc1c[nH]c2ccccc12)C(=O)O)C1CCNCC1 | > 1000 µM
O=C(N[C@@H](Cc1c[nH]c2ccccc12)C(=O)O)c1ccccc1O | > 500 µM
O=C(N[C@@H](Cc1c[nH]cn1)C(=O)O)c1c(F)cccc1Cl | 0.13 µM
O=C(N[C@@H](Cc1c[nH]c2ccccc12)C(=O)O)c1c(F)cccc1F | 0.46 µM
Cc1ccc(C(=O)N[C@@H](Cc2c[nH]c3ccccc23)C(=O)O)cc1 | 129 µM
O=C(N[C@@H](Cc1c[nH]c2ccccc12)C(=O)O)c1cncc(Br)c1 | > 200 µM
O=C(N[C@@H](Cc1c[nH]c2ccccc12)C(=O)O)c1c(F)cccc1Cl | 0.25 µM
O=C(N[C@@H](Cc1c[nH]c2ccccc12)C(=O)O)c1ccc(-c2ccccc2)cc1 | > 100 µM
O=C(N[C@@H](Cc1c[nH]c2ccccc12)C(=O)O)c1ccccc1-c1ccccc1 | > 100 µM
O=C(N[C@@H](Cc1c[nH]c2ccccc12)C(=O)O)c1ccc([N+](=O)[O-])cc1Cl | 5.2 µM
Cc1cccc(C)c1C(=O)N[C@@H](Cc1c[nH]c2ccccc12)C(=O)O | 1.1 µM
NC(=O)C[C@H](NC(=O)c1c(F)cccc1Cl)C(=O)O | 0.11 µM
O=C(N[C@@H](Cc1c[nH]c2ccccc12)C(=O)O)c1cccc(F)c1 | 148 µM
O=C(N[C@@H](Cc1c[nH]cn1)C(=O)O)c1c(F)cccc1F | 0.2 µM
O=C(N[C@@H](Cc1c[nH]c2ccccc12)C(=O)O)c1ccc(Br)cc1 | 61 µM
COc1cccc(C(=O)N[C@@H](Cc2c[nH]c3ccccc23)C(=O)O)c1 | 438 µM

SMILES | IC50
COc1ccccc1C(=O)N[C@@H](Cc1c[nH]c2ccccc12)C(=O)O | 225 µM
COc1ccc(Br)c(C(=O)N[C@@H](Cc2c[nH]c3ccccc23)C(=O)O)c1 | 9 µM
O=C(N[C@@H](Cc1c[nH]c2ccccc12)C(=O)O)c1cccc(O)c1 | > 100 µM
Cc1cccc(Cl)c1C(=O)N[C@@H](Cc1c[nH]c2ccccc12)C(=O)O | 0.64 µM
O=C(N[C@@H](Cc1c[nH]c2ccccc12)C(=O)O)c1ccc[n+]([O-])c1 | > 1000 µM
CC1CCCCC1C(=O)N[C@@H](Cc1c[nH]c2ccccc12)C(=O)O (stereo partly drawn) | 28 µM
Cc1cccc(C)c1C(=O)N[C@@H](Cc1cnc[nH]1)C(=O)O | 1.77 µM
Cc1ccccc1C(=O)N[C@@H](Cc1c[nH]c2ccccc12)C(=O)O | 4 µM
O=C(N[C@@H](Cc1c[nH]c2ccccc12)C(=O)O)c1cc(Cl)cc(Cl)c1 | 200 µM
O=C(N[C@@H](Cc1c[nH]c2ccccc12)C(=O)O)c1cc(F)cc(F)c1 | 89.7 µM
O=C(N[C@@H](Cc1c[nH]c2ccccc12)C(=O)O)c1ccncc1 | 92 µM
O=C(N[C@@H](Cc1cnc[nH]1)C(=O)O)c1c(Cl)cccc1Cl | 0.16 µM
O=C(N[C@@H](Cc1c[nH]c2ccccc12)C(=O)O)c1c(Cl)cccc1Cl | 0.6 µM
O=C(N[C@@H](Cc1c[nH]c2ccccc12)C(=O)O)c1cccc(F)c1F | 21.6 µM
O=C(N[C@@H](Cc1c[nH]c2ccccc12)C(=O)O)c1ccccc1Cl | 1.5 µM
O=C(N[C@@H](Cc1c[nH]c2ccccc12)C(=O)O)c1ccc(Cl)cc1 [BENZOTRIPT] | 169 µM

Other lines, results leading:

IC50 | SMILES
0.43 µM | O=C(N[C@@H](Cc1c[nH]c2ccccc12)C(=O)O)c1c(F)cccc1Br
> 1000 µM | O=C(N[C@@H](Cc1c[nH]c2ccccc12)C(=O)O)C1CCCNC1 (stereo partly drawn)
7.4 µM | O=C(N[C@@H](Cc1c[nH]c2ccccc12)C(=O)O)c1ccccc1F
380 µM | O=C(O)[C@H](Cc1c[nH]c2ccccc12)NC(=O)N1CCCCC1
6.3 µM | O=C(N[C@@H](Cc1c[nH]c2ccccc12)C(=O)O)c1cccc(Cl)c1Cl
0.17 µM | NC(=O)C[C@H](NC(=O)c1c(Cl)cccc1Cl)C(=O)O
2 µM | Nc1ccc(C(=O)N[C@@H](Cc2c[nH]c3ccccc23)C(=O)O)c(Cl)c1
> 500 µM | O=C(N[C@@H](Cc1c[nH]c2ccccc12)C(=O)O)c1cc(Br)ccc1O
8.9 µM | O=C(N[C@@H](Cc1c[nH]c2ccccc12)C(=O)O)c1ccccc1I
112 µM | O=C(N[C@@H](Cc1c[nH]c2ccccc12)C(=O)O)c1cccnc1
61 µM | O=C(N[C@@H](Cc1c[nH]c2ccccc12)C(=O)O)C1CCCCC1
8.4 µM | O=C(N[C@@H](Cc1c[nH]c2ccccc12)C(=O)O)c1ccc(Cl)cc1Cl
295 µM | Cc1cccc(C(=O)N[C@@H](Cc2c[nH]c3ccccc23)C(=O)O)c1
136 µM | O=C(N[C@@H](Cc1c[nH]c2ccccc12)C(=O)O)c1ccc(F)cc1
24.3 µM | O=C(N[C@@H](Cc1c[nH]c2ccccc12)C(=O)O)c1cc(Br)ccc1Br
178 µM | COc1ccc(C(=O)N[C@@H](Cc2c[nH]c3ccccc23)C(=O)O)cc1
32.6 µM | O=C(N[C@@H](Cc1c[nH]c2ccccc12)C(=O)O)c1cnccc1Cl
0.23 µM | NC(=O)C[C@H](NC(=O)c1c(F)cccc1F)C(=O)O
> 100 µM | O=C(N[C@@H](Cc1c[nH]c2ccccc12)C(=O)O)c1cccc(Br)c1
295 µM | O=C(N[C@@H](Cc1c[nH]c2ccccc12)C(=O)O)c1cccc(Cl)c1
17.9 µM | O=C(N[C@@H](Cc1c[nH]c2ccccc12)C(=O)O)c1cc(Br)ccc1Cl
> 100 µM | O=C(N[C@@H](Cc1c[nH]c2ccccc12)C(=O)O)c1cccc(I)c1
> 100 µM | O=C(N[C@@H](Cc1c[nH]c2ccccc12)C(=O)O)c1ccccn1
11.5 µM | O=C(N[C@@H](Cc1c[nH]c2ccccc12)C(=O)O)c1cc(F)ccc1F
> 100 µM | O=C(N[C@@H](Cc1c[nH]c2ccccc12)C(=O)O)c1ccc(O)cc1
170 µM | O=C(N[C@@H](Cc1c[nH]c2ccccc12)C(=O)O)c1ccc(Cl)c(Cl)c1
92 µM | O=C(N[C@@H](Cc1c[nH]c2ccccc12)C(=O)O)c1ccc(I)cc1
6.6 µM | O=C(N[C@@H](Cc1c[nH]c2ccccc12)C(=O)O)c1cc(Cl)ccc1Cl
1.2 µM | O=C(N[C@@H](Cc1c[nH]c2ccccc12)C(=O)O)c1cccnc1Cl
> 1000 µM | O=C(N[C@@H](Cc1c[nH]c2ccccc12)C(=O)O)C1CCCCN1 (stereo partly drawn) (H-[ξPip]-Trp-OH)
